The target in data set [1] is T1, serotonin-2 receptor (Rattus norvegicus, UniProt P14842).
T1 construct: from tissue; host or cells: rat cerebral cortex, synaptosomal membranes
Nature of the data set: Affinity for serotonin-2 receptor: 3H-spiperone binding assay. As to conditions: rat cerebral cortex synaptosomal membranes; 3H-spiperone 0.5 nM; 37° C., 20 min. As for the experimental part: (§1) Experiment 3 Affinity for serotonin receptor
(2) Affinity for serotonin-2 receptor: ^3 H-spiperone bindig assay
The preparation of synaptosomal membranes and binding assay were performed according to the method of Peroutka and Snyder (Molecular Pharmacology, vol. 16, p. 687, 1979).
Rat cerebral cortex which was maintained in a freezed state was homogenized in 20-fold volumes of ice-cold 0.32 M sucrose and centrifugated at 1,000 g for 10 minutes at 0° C. The supernatant was centrifugated at 50,000 g for 15 minutes at 0° C. The obtained pellets were homogenized in 20-fold volumes of ice-cold 50 mM Tris-HCl buffer (pH 7.5). The mixture was incubated at 37° C. for 10 minutes, and further centrifugated at 50,000 g for 15 minutes at 0° C. The suspension of synaptosomal membrane was prepared by homogenizing the obtained pellets in 60-fold volumes of the buffer mentioned above containing 1.1 mM ascorbic acid, 4 mM calcium chloride and 10 μM pargyline.
To 900 μl of the suspension of synaptosomal membrane were added 50 μl of ^3 H-spiperone (final concentration : 0.5 nM) and 50 μl of the test compound solution or the solvent, and then incubated at 37° C. for 20 minutes. After the completion of incubation, 5 ml of ice-cold buffer as mentioned above was added. Immediately thereafter, the mixture was filtered with suction through Whatman GF/B filter. The filter was washed twice with 5 ml of the same buffer as mentioned above and the radioactivity on the filter was measured by a liquid scintillation counter.

The subject of data set [2] is apomorphine-induced motility. As to the kind of experiment: Experiment 1 Anti-apomorphine action (motility, Varimex). As to conditions: Mus musculus, po; apomorphine 0.5 mg/kg s.c. 1 h after compound; motility 20 min; dose lowering motility of control by 50%. In kind it is in vivo, male dd-strain mice. Here is the method:
Experiment 1 Anti-apomorphine action
Groups of 3 male dd-strain mice (4 groups/dose) were used. Test compounds were orally administered and an hour later, 0.5 mg/kg of apomorphine was subcutaneously administered. Immediately thereafter, motility was measured with the aid of Varimex (manufactured by Columbus Co.) for 20 minutes. The ED50 values, the dose of test compound required to lower the motility of the control group by 50%, were graphically calculated.

Data set [3] deals with serotonin-induced head-twitch. As to the kind of experiment: Experiment 2 Anti-serotonin action (head-twitch method in mice). It counts as in vivo, male dd-strain mice. Particulars: Mus musculus, po; serotonin 40 μg/0.02 ml i.c.v. 1 h after compound; head-twitch counted 5 min; probit method. As for the experimental part: Experiment 2 Anti-serotonin action (head-twitch method in mice)
Groups of 8-30 male dd-strain mice were used. The test compounds were orally administered and an hour later, 40 μg/0.02 ml of serotonin was intracerebroventricularly administered. Ten minutes thereafter, the numbers of head-twitch were measured for 5 minutes. The ED50 values calculated by the probit method considering the number of head-twitch induced by the administration of serotonin with less than once as the inhibitory action by the test compound.

Data set [4] has as its target T2, serotonin-1 receptor (Rattus norvegicus, UniProt P19327).
T2 sequence (P19327 1-422): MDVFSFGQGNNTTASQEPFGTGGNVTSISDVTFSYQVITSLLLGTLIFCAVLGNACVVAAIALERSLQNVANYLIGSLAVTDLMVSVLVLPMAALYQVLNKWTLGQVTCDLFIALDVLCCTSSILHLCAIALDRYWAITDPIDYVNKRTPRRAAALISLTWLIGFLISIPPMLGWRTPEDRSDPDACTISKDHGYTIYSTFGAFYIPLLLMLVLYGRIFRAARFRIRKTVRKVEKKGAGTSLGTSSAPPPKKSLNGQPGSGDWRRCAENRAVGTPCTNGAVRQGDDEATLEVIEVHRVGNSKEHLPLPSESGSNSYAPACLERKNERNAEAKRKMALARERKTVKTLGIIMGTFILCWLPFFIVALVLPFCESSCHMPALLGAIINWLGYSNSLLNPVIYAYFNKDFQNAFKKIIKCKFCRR
As to the kind of experiment: Affinity for serotonin-1 receptor: 3H-8-OH-DPAT binding assay. Particulars: rat hippocampus synaptosomal membranes; 3H-8-OH-DPAT 0.2 nM; pH 7.4, 37° C., 10 min. Here is the method: as §1
(1) Affinity for serotonin-1 receptor: ^3 H-8-hydroxy-2-(dipropylamino)tetralin(^3 H-8-OH-DPAT) binding assay
Preparation of synaptosomal membranes and ^3 H-8-OH-DPAT binding assay were performed according to the method of Hall et al(Journal of Neurochemistry, vol. 44, p. 1685, 1985).
Rat hyppocampus which was maintained in a freezed state was homogenized in 40-fold volumes of ice-cold 50 mM Tris-HCl buffer (pH 7.4) and centrifugated at 500 g for 10 minutes at 0° C. Further, the supernatant was centrifugated at 40,000 g for 20 minutes at 0° C. and the pellets thus obtained were homogenized in 40-fold volumes of the same buffer as mentioned above, and then incubated at 37° C. for 10 minutes. After incubation, the suspension was centrifugated at 40,000 g for 20 minutes at 0° C. The obtained pellets were washed by repeating twice the procedures of homogenization in the above-mentioned buffer and centrifugation. The suspension of synaptosomal membranes was prepared by homogenizing the pellets finally obtained in 60-fold volumes of 50 mM Tris-HCl buffer (pH 7.4) containing 1 mM manganese chloride.
To 900 μl of the membrane suspension were added 50 μl of ^3 H-8-OH-DPAT solution (final concentration: 0.2 nM), and 50 μl of the test compound solution or the solvent and the mixture was incubated at 37° C. for 10 minutes. After incubation, 5 ml of ice-cold 50 mM Tris-HCl buffer (pH 7.4) was added, and immediately thereafter, the mixture was filtered with suction through Whatman GF/B filter. The filter was washed twice with 5 ml of the same buffer as mentioned above and the radioactivity on the filter was measured by a liquid scintillation counter.

In data set [5] the test system is catalepsy. As to the kind of experiment: Experiment 4 Cataleptogenic action. In kind it is in vivo, female Wistar-strain rats. Particulars: rats, index of extrapyramidal side effects. As for the experimental part:
(§2) Then, the cataleptogenic action of the compound of Example 15 was studied for the purpose of measuring the degree of the extrapyramidal side effect. […]
(§3) Experiment 4 Cataleptogenic action
(§4) Groups of 10 female Wistar-strain rats were used. Catalepsy was measured by the partly modified method of Simon et al (Journal of Pharmacy and Pharmacology, vol. 22, P. 546, 1970). The front paws of the rats were placed gently on a vertical grid (4 mm diameter, 9 cm height).
(§5) After the compound of Example 15 was orally administered, catalepsy was measured with the passage of time in 9 hours.

A short description of data set [6]: Experiment 4 Cataleptogenic action. In kind it is in vivo, female Wistar-strain rats. Particulars: rat, in vivo, po; orally; peak time of catalepsy within 9 hours; probit method. As for the experimental part:
as §2, §3, §4, §5

As a reminder, the Ki is a dissociation constant, usually derived from enzyme kinetics or from competition with a known ligand. For orientation: ED50 means the dose at which the effect has come halfway, by size or by number of responders. A high value points to a need for a large dose.

T1 sequence (P14842 whole entry): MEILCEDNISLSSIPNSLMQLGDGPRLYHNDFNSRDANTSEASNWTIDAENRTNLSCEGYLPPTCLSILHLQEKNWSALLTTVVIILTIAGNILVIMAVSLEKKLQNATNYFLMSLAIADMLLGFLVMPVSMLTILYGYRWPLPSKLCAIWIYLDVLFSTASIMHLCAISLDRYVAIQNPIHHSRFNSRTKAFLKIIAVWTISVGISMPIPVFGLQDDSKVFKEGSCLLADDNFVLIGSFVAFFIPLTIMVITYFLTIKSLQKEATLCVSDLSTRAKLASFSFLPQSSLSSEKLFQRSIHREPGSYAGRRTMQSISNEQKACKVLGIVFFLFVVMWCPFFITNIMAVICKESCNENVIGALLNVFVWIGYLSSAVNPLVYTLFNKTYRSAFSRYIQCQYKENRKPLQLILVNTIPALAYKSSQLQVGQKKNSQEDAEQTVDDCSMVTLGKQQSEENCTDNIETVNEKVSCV

Regarding `Cc1cccc(N2CCN(CCCCc3ccc(C4CCC(=O)N4)cc3)CC2)c1` (centres unmarked) [Example 1, 5-[4-(4-(4-(3-methylphenyl)piperazin-1-yl)butyl)phenyl]pyrrolidin-2-one], the Ki is 0.023 µM in data set [1] and 0.00061 µM in data set [4]. Further, the ED50 came out at 13 mg/kg in data set [2] and 0.53 mg/kg in data set [3].
For `Cl.O=C1CCC(c2ccc(CCN3CCN(c4cccc(C(F)(F)F)c4)CC3)cc2)N1` (centres unmarked) [Example 2, 5-[4-(2-(4-(3-trifluoromethylphenyl)piperazin-1-yl)ethyl)phenyl]pyrrolidin-2-one hydrochloride] the same measures were 0.078 µM, 0.00031 µM, 15 mg/kg and 0.15 mg/kg.
For `O=C1CCC(c2ccc(CCCCN3CCN(c4ccc(F)cc4)CC3)cc2)N1` (centres unmarked) [Example 6, 5-[4-(4-(4-(4-fluorophenyl)piperazin-1-yl)butyl)phenyl]pyrrolidin-2-one] the same measures were 0.066 µM, 0.0047 µM, 4.2 mg/kg and 2.2 mg/kg.
For the compound `COc1ccccc1N1CCN(CCCCc2ccc(C3CCC(=O)N3)cc2)CC1` (centres unmarked) [Example 7, 5-[4-(4-(4-(2-methoxyphenyl)piperazin-1-yl)butyl)phenyl]pyrrolidin-2-one], the Ki in data set [1] stood at 0.48 µM; in data set [4], 0.00028 µM. The ED50 in data set [2] stood at 2.1 mg/kg; in data set [3], 3.5 mg/kg.
For `O=C1CCC(c2ccc(CCCN3CCN(c4ccccc4)CC3)cc2)N1` (centres unmarked) [Example 9, 5-[4-(3-(4-phenylpiperazin-1-yl)propyl)phenyl]pyrrolidin-2-one] the same measures were 0.25 µM, 0.0045 µM, 9.5 mg/kg and 2.4 mg/kg.
Regarding `Cl.Cl.O=C1CCC(c2ccc(CCCCN3CCN(c4cccc(C(F)(F)F)c4)CC3)cc2)N1` (centres unmarked) [Example 15, 5-[4-(4-(4-(3-trifluoromethylphenyl)piperazin-1-yl)butyl)phenyl]pyrrolidin-2-one dihydrochloride], the Ki in data set [1] turned out to be 0.063 µM; in data set [4], 0.0004 µM. Also, the median effective dose (ED50) in data set [2] was 4.2 mg/kg; in data set [3], 0.32 mg/kg; in data set [6], 250 mg/kg. In addition, the “cataleptogenic action (in words)” value in data set [5] is listed as “very weak cataleptic action”.

Values taken from patent US4931443A, “Piperazine compound and pharmaceutical use thereof” (Yoshitomi Pharmaceutical Industries, Ltd., priority 1986, dated 1990).
